Data as given in US20250326765A1, “PDE4B INHIBITOR AND USE THEREOF” (XIZANG HAISCO PHARMACEUTICAL CO., LTD., priority 2022, published 2025).

How the values were obtained:
PDE4B2 = target: T1, PDE4B2 (Homo sapiens, UniProt Q07343); test: Effect of compounds on PDE4B2 activity (fluorescence polarization kit); format: biochemical; conditions: class symbols; read-out: PDE4B2 IC50
T1 construct: purchased BPS Bioscience 60343
Experimental: The effect of compounds on PDE4B2 activity was detected by a fluorescence polarization kit (BPS Bioscience, Catalog #60343). According to the instructions of the kit, FAM-Cyclic-3′,5′-AMP at a final concentration of […], 1 ng/well of PDE4B2 (PDE buffer was added to the negative control well), and a compound diluted in a gradient manner (PDE buffer containing 10% DMSO was added to the positive control well) were added to each well, fully mixed, and then reacted at room temperature for 1 h. The Binding Agent was diluted with the Binding Agent Diluent (cAMP) at a ratio of 1:100 for later use, the Binding Agent dilution was taken and added to the test plate at 50 μl/well and incubated at room temperature with slow shaking for 20 minutes. After the incubation was complete, Envision was used for FP detection, with Excitation at 480 nm and Emission at 535 nm. FP was usually represented by mP value.
[formula] • I∥ (S535): fluorescence intensity in parallel direction • I⊥ (P535): fluorescence intensity in perpendicular direction • G: G factor=1
(§1) [formula] • mP(sample): mP of the test compound in a reaction well • mP(negative control): mP in the negative control well • mP(positive control): mP in the positive control well
(§2) According to the calculated inhibition rate at each concentration, the IC50 value of each compound was calculated by GraphPad Prism 8 software.

PDE4D2 = target: T2, PDE4D2 (Homo sapiens, UniProt Q08499); test: Effect of compounds on PDE4D2 activity (fluorescence polarization kit); format: biochemical; conditions: class symbols
T2 construct: purchased BPS Bioscience 60345
T2 sequence (Q08499 303-809): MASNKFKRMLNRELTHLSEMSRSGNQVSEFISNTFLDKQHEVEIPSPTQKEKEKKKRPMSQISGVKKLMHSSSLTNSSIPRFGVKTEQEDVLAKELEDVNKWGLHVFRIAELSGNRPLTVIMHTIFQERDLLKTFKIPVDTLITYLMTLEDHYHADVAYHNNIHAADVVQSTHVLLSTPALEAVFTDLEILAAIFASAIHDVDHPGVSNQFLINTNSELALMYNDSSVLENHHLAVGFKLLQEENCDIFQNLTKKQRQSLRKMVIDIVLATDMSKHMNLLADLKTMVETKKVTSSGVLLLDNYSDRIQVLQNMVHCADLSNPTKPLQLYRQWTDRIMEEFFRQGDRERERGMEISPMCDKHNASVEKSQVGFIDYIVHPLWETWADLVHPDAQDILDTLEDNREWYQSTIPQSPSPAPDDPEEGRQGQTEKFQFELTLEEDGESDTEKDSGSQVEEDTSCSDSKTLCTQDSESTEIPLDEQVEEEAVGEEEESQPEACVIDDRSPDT
Experimental: The effect of compounds on PDE4D2 activity was detected by a fluorescence polarization kit (BPS Bioscience, Catalog #60345). During the reaction, 12.5 μL of 0.272 ng/well of an enzyme (final concentration: 0.068 ng/well) and 12.5 μL of the compound diluted in a gradient manner (DMSO concentration: 4%) were first pre-incubated at room temperature for 15 minutes, the same volume of the enzyme at the same concentration and 12.5 μL of PDE buffer containing 4% DMSO were added to the positive control well, and 25 μL of PDE buffer containing 2% DMSO was added to the negative control well. After completion, 25 μL of […] FAM-Cyclic-3′,5′-AMP (final concentration: […]) was added to each well, fully mixed, and then incubated at room temperature with slow shaking for 30 minutes. The Binding Agent was diluted with the Binding Agent Diluent (cAMP) at a ratio of 1:100 for later use, 100 μl/well of the Binding Agent dilution was taken and added to all wells of the test plate and incubated at room temperature with slow shaking for 1 hour.
After the incubation was complete, BMG LRBTECH microplate reader was used for FP detection, with Excitation at 485 nm and Emission at 520 nm. FP was usually represented by mP value.
[formula] • I∥ (S520): fluorescence intensity in parallel direction • I⊥ (P520): fluorescence intensity in perpendicular direction • G: G factor=1
as §1, §2

[1] = Inhibition of LPS-induced TNF-α release from human peripheral blood mononuclear cells in vitro; format: cell-based; conditions: PBMC, hPBMC, 100 ng/mL LPS, 4 h; for IC50: class symbols, read-out: Re IC50 (nM) (relative IC50), TNF-α induced by LPS; for Emax: read-out: Max inhibition (%)
Experimental: Normal human peripheral blood which was anticoagulated (citric acid anticoagulation) was collected, and hPBMCs were prepared by Ficoll-Paque PLUS (Cytiva, Cat #17144002, density 1.077 g/mL). The concentration of hPBMC cells was adjusted to 0.25×10^6 cells/mL with RPMI1640 medium and inoculated into a 96-well plate in an amount of 50000 cells per well. Subsequently, different concentrations of drugs were added for pre-incubation for 1 h (the DMSO final concentration was 0.1%, and the positive and negative control wells had the same volume of RPMI1640 containing 0.1% DMSO). After the pre-incubation was complete, 100 ng/mL LPS (SIGMA, L2630) was added to the compound and positive control wells, and the negative control well had the same volume of RPMI1640 containing 0.1% DMSO. Incubation was carried out for 4 h in an incubator at 37° C. and 5% CO2. The cell supernatant was collected, and the content of TNF-α in the supernatant sample was detected by human TNF-α Elisa quantitative test kit (Sino Biological, Cat #KIT10602). The IC50 value was calculated using GraphPad Prism software.

T1 sequence (Q07343 1-564 isoform Q07343-2): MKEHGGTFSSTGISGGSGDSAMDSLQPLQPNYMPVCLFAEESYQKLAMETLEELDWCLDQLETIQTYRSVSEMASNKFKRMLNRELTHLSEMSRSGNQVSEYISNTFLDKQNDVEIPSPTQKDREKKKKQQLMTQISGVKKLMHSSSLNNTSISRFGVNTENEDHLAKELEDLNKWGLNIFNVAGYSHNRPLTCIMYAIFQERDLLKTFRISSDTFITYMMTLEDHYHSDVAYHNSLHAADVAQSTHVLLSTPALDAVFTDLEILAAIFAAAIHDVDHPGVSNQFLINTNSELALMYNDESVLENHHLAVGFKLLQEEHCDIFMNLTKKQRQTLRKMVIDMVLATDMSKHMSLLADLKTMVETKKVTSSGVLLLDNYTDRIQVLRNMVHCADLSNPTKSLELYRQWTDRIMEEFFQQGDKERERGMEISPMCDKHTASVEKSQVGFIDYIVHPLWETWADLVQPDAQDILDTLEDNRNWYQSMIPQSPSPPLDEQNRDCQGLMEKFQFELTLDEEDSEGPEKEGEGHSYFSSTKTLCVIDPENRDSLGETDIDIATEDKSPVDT

C[Si]1(C)CCN(c2cnc(C3=CCN(c4nc5c(c(NC6(CO)CCC6)n4)[S@+]([O-])CC5)CC3)nc2)CC1 [Compound 54]
IC50 (PDE4B2): < 10 nM
IC50 (PDE4D2): < 10 nM
IC50 [1]: 10 to 50 nM
Emax [1]: 78.4%

Cc1nnc(C2=CCN(c3nc4c(c(NC5(CO)CCC5)n3)[S@+]([O-])CC4)CC2)o1 [Compound 55]
IC50 (PDE4B2): < 10 nM
IC50 (PDE4D2): < 10 nM
IC50 [1]: 10 to 50 nM
Emax [1]: 67.2%

[O-][S@+]1CCc2nc(N3CC=C(c4nc5ccccc5s4)CC3)nc(NC3(CO)CCC3)c21 [Compound 56]
IC50 (PDE4B2): < 10 nM
IC50 (PDE4D2): < 10 nM

C#Cc1cnc(N2CCN(c3nc4c(c(NC5(CO)CCC5)n3)[S+]([O-])CC4)CC2)nc1 (stereo not shown) [Compound 57]
IC50 (PDE4B2): 10 to 50 nM
IC50 (PDE4D2): 10 to 50 nM

[O-][S@+]1CCc2nc(N3CC=C(c4nc5ccccc5o4)CC3)nc(NC3(CO)CCC3)c21 [Compound 58]
IC50 (PDE4B2): < 10 nM
IC50 (PDE4D2): < 10 nM

CP(C)(=O)c1cnc(C2=CCN(c3nc4c(c(NC5(CO)CCC5)n3)[S@+]([O-])CC4)CC2)nc1 [Compound 59]
IC50 (PDE4B2): 10 to 50 nM
IC50 (PDE4D2): 10 to 50 nM

Cc1coc(C2=CCN(c3nc4c(c(NC5(CO)CCC5)n3)[S@+]([O-])CC4)CC2)n1 [Compound 60]
IC50 (PDE4B2): 10 to 50 nM
IC50 (PDE4D2): 10 to 50 nM

CP(C)(=O)c1cccc(C2=CCN(c3nc4c(c(NC5(CO)CCC5)n3)[S@+]([O-])CC4)CC2)c1 [Compound 63]
IC50 (PDE4B2): < 10 nM
IC50 (PDE4D2): < 10 nM

N#CC1(c2cnc(C3=CCN(c4nc5c(c(NC6(CO)CCC6)n4)[S@+]([O-])CC5)CC3)nc2)CC1 [Compound 64]
IC50 (PDE4B2): < 10 nM
IC50 (PDE4D2): 10 to 50 nM
IC50 [1]: < 10 nM
Emax [1]: 70.8%

[O-][S@+]1CCc2nc(N3C[C@H]4CN(c5ncc6c(n5)CC6)C[C@H]4C3)nc(NC3(CO)CCC3)c21 [Compound 65]
IC50 (PDE4B2): < 10 nM
IC50 (PDE4D2): < 10 nM
IC50 [1]: 10 to 50 nM
Emax [1]: 82%

[O-][S@+]1CCc2nc(N3CC=C(c4ccc5c(c4)COB5O)CC3)nc(NC3(CO)CCC3)c21 [Compound 66]
IC50 (PDE4B2): < 10 nM
IC50 (PDE4D2): < 10 nM
IC50 [1]: 10 to 50 nM
Emax [1]: 79.3%

[O-][S@+]1CCc2nc(N3Cc4cc5c(cc4C3)CCC5)nc(NC3(CO)CCC3)c21 [Compound 69]
IC50 (PDE4B2): < 10 nM
IC50 (PDE4D2): 10 to 50 nM
IC50 [1]: 50 to 100 nM
Emax [1]: 74.4%

C#Cc1ccc(C2=CCN(c3nc4c(c(NC5(CO)CCC5)n3)[S@+]([O-])CC4)CC2)nc1 [Compound 70]
IC50 (PDE4B2): < 10 nM
IC50 (PDE4D2): < 10 nM
IC50 [1]: < 10 nM
Emax [1]: 70.5%

CP(C)(=O)c1ccnc(C2=CCN(c3nc4c(c(NC5(CO)CCC5)n3)[S@+]([O-])CC4)CC2)n1 [Compound 71]
IC50 (PDE4B2): 10 to 50 nM
IC50 (PDE4D2): 10 to 50 nM

CC#Cc1cnc(C2=CCN(c3nc4c(c(NC5(CO)CCC5)n3)[S@+]([O-])CC4)CC2)nc1 [Compound 76]
IC50 (PDE4B2): < 10 nM
IC50 (PDE4D2): < 10 nM
IC50 [1]: < 10 nM
Emax [1]: 73.8%

[O-][S@+]1CCc2nc(N3CC=C(c4ncc5c(n4)COB5O)CC3)nc(NC3(CO)CCC3)c21 [Compound 79]
IC50 (PDE4B2): < 10 nM
IC50 (PDE4D2): 10 to 50 nM
IC50 [1]: < 10 nM
Emax [1]: 61.5%

CC#Cc1ccc(C2=CCN(c3nc4c(c(NC5(CO)CCC5)n3)[S@+]([O-])CC4)CC2)nc1 [Compound 82]
IC50 (PDE4B2): < 10 nM
IC50 (PDE4D2): < 10 nM
